How the values were obtained:
Mus musculus [1] = assay: Toxicity in Mus musculus BALB/c (mouse) assessed as behavioral changes at 50 to 200 mg/kg, po after 72 hr; format: organism-based; set-up: dose 50-200 mg/kg, route oral; conditions: in vivo
Mus musculus [2] = assay: Toxicity in Mus musculus BALB/c (mouse) assessed as mortality at 50 to 200 mg/kg, po after 72 hr; format: organism-based; set-up: dose 50-200 mg/kg, route oral; conditions: in vivo
Mus musculus [3] = assay: Antioxidant activity in Mus musculus BALB/c (mouse) stomach assessed as TBARS level at 100 mg/kg, po (reference value: 80.4 +/- 5.4 nmol/g ); format: functional
Mus musculus [4] = assay: Anti-inflammatory activity in Mus musculus BALB/c (mouse) assessed as inhibition of carrageenan-induced paw swelling at 100 mg/kg, po administered 1 hr followed by carrageenan challenge measured at 360 min relative to control; format: functional
Mus musculus [5] = assay: Anti-inflammatory activity in Mus musculus BALB/c (mouse) assessed as inhibition of carrageenan-induced paw swelling at 100 mg/kg, po administered 1 hr followed by carrageenan challenge measured at 270 min relative to control; format: functional
Mus musculus [6] = assay: Anti-inflammatory activity in Mus musculus BALB/c (mouse) assessed as inhibition of carrageenan-induced paw swelling at 100 mg/kg, po administered 1 hr followed by carrageenan challenge measured at 180 min relative to control; format: functional
Mus musculus [7] = assay: Anti-inflammatory activity in Mus musculus BALB/c (mouse) assessed as carrageenan-induced paw swelling at 50 mg/kg, po administered 1 hr followed by carrageenan challenge measured at 360 min (reference value: 105 +/- 4.5 x 10^-2 mm); format: functional
Mus musculus [8] = assay: Anti-inflammatory activity in Mus musculus BALB/c (mouse) assessed as carrageenan-induced paw swelling at 200 mg/kg, po administered 1 hr followed by carrageenan challenge measured at 360 min (reference value: 105 +/- 4.5 x 10^-2 mm); format: functional
Mus musculus [9] = assay: Anti-inflammatory activity in Mus musculus BALB/c (mouse) assessed as carrageenan-induced paw swelling at 100 mg/kg, po administered 1 hr followed by carrageenan challenge measured at 360 min (reference value: 105 +/- 4.5 x 10^-2 mm); format: functional
Mus musculus [10] = assay: Anti-inflammatory activity in Mus musculus BALB/c (mouse) assessed as carrageenan-induced paw swelling at 50 mg/kg, po administered 1 hr followed by carrageenan challenge measured at 270 min (reference value: 78 +/- 8.4 x 10^-2 mm); format: functional
Mus musculus [11] = assay: Anti-inflammatory activity in Mus musculus BALB/c (mouse) assessed as carrageenan-induced paw swelling at 200 mg/kg, po administered 1 hr followed by carrageenan challenge measured at 270 min (reference value: 78 +/- 8.4 x 10^-2 mm); format: functional
Mus musculus [12] = assay: Anti-inflammatory activity in Mus musculus BALB/c (mouse) assessed as carrageenan-induced paw swelling at 100 mg/kg, po administered 1 hr followed by carrageenan challenge measured at 270 min (reference value: 78 +/- 8.4 x 10^-2 mm); format: functional
Mus musculus [13] = assay: Anti-inflammatory activity in Mus musculus BALB/c (mouse) assessed as carrageenan-induced paw swelling at 50 mg/kg, po administered 1 hr followed by carrageenan challenge measured at 180 min (reference value: 52 +/- 4.6 x 10^-2 mm); format: functional
Mus musculus [14] = assay: Anti-inflammatory activity in Mus musculus BALB/c (mouse) assessed as carrageenan-induced paw swelling at 200 mg/kg, po administered 1 hr followed by carrageenan challenge measured at 180 min (reference value: 52 +/- 4.6 x 10^-2 mm); format: functional
Mus musculus [15] = assay: Anti-inflammatory activity in Mus musculus BALB/c (mouse) assessed as carrageenan-induced paw swelling at 100 mg/kg, po administered 1 hr followed by carrageenan challenge measured at 180 min (reference value: 52 +/- 4.6 x 10^-2 mm); format: functional
Mus musculus [16] = assay: Anti-inflammatory activity in Mus musculus BALB/c (mouse) assessed as carrageenan-induced paw swelling at 50 mg/kg, po administered 1 hr followed by carrageenan challenge measured at 90 min (reference value: 39 +/- 5.6 x 10^-2 mm); format: functional
Mus musculus [17] = assay: Anti-inflammatory activity in Mus musculus BALB/c (mouse) assessed as carrageenan-induced paw swelling at 200 mg/kg, po administered 1 hr followed by carrageenan challenge measured at 90 min (reference value: 39 +/- 5.6 x 10^-2 mm); format: functional
Mus musculus [18] = assay: Anti-inflammatory activity in Mus musculus BALB/c (mouse) assessed as carrageenan-induced paw swelling at 100 mg/kg, po administered 1 hr followed by carrageenan challenge measured at 90 min (reference value: 39 +/- 5.6 x 10^-2 mm); format: functional
Mus musculus [19] = assay: Analgesic activity in Mus musculus BALB/c (mouse) assessed as inhibition of acetic acid-induced writhing at 100 mg/kg, po administered 1 hr followed by acetic acid challenge measured for 10 min; format: functional
Mus musculus [20] = assay: Anti-inflammatory activity in Mus musculus BALB/c (mouse) assessed as inhibition of carrageenan-induced paw swelling at 50 mg/kg, po administered 1 hr followed by carrageenan challenge measured at 360 min relative to control; format: functional
Mus musculus [21] = assay: Anti-inflammatory activity in Mus musculus BALB/c (mouse) assessed as inhibition of carrageenan-induced paw swelling at 50 mg/kg, po administered 1 hr followed by carrageenan challenge measured at 270 min relative to control; format: functional
Mus musculus [22] = assay: Anti-inflammatory activity in Mus musculus BALB/c (mouse) assessed as inhibition of carrageenan-induced paw swelling at 200 mg/kg, po administered 1 hr followed by carrageenan challenge measured at 360 min relative to control; format: functional
Mus musculus [23] = assay: Anti-inflammatory activity in Mus musculus BALB/c (mouse) assessed as inhibition of carrageenan-induced paw swelling at 200 mg/kg, po administered 1 hr followed by carrageenan challenge measured at 270 min relative to control; format: functional
Mus musculus [24] = assay: Anti-inflammatory activity in Mus musculus BALB/c (mouse) assessed as inhibition of carrageenan-induced paw swelling at 200 mg/kg, po administered 1 hr followed by carrageenan challenge measured at 180 min relative to control; format: functional

| SMILES | Activity (Mus musculus [1]) | Activity (Mus musculus [2]) | Activity (Mus musculus [3]) [nmol/g] | inhibition in vivo at 100 mg/kg (Mus musculus [4]) [%] | inhibition in vivo at 100 mg/kg (Mus musculus [5]) [%] | inhibition in vivo at 100 mg/kg (Mus musculus [6]) [%] | Activity (Mus musculus [7]) [×10⁻² mm] | Activity (Mus musculus [8]) [×10⁻² mm] | Activity (Mus musculus [9]) [×10⁻² mm] | Activity (Mus musculus [10]) [×10⁻² mm] | Activity (Mus musculus [11]) [×10⁻² mm] | Activity (Mus musculus [12]) [×10⁻² mm] | Activity (Mus musculus [13]) [×10⁻² mm] | Activity (Mus musculus [14]) [×10⁻² mm] | Activity (Mus musculus [15]) [×10⁻² mm] | Activity (Mus musculus [16]) [×10⁻² mm] | Activity (Mus musculus [17]) [×10⁻² mm] | Activity (Mus musculus [18]) [×10⁻² mm] | inhibition in vivo at 100 mg/kg (Mus musculus [19]) [%] | inhibition in vivo at 50 mg/kg (Mus musculus [20]) [%] | also measured |
| --- | --- | --- | --- | --- | --- | --- | --- | --- | --- | --- | --- | --- | --- | --- | --- | --- | --- | --- | --- | --- | --- |
| CCOC(=O)Cc1csc2nc(-c3ccccc3)nn12 | Non-toxic | Non-toxic | 174.1 | 16.7 | 31.1 | 23.1 | 102 | 105.4 | 87.5 | 79.7 | 75 | 53.7 | 53.5 | 48.1 | 40 | 76.3 | 35.2 | 45 | – | – | – |
| CCOC(=O)Cc1csc2nc(Cc3cc(OC)c(OC)c(OC)c3)nn12 | Non-toxic | Non-toxic | 157.1 | – | – | 37.9 | 87.2 | 93.4 | 129.5 | 61.3 | 70.3 | 105 | 46 | 42.5 | 32.3 | 55.1 | 38 | 40.8 | 62.8 | 16.9 | inhibition in vivo at 50 mg/kg (Mus musculus [21]): 21.4% |
| CCOC(=O)c1sc2nc(-c3ccc(Cl)cc3)nn2c1C | Non-toxic | Non-toxic | 116.9 | 28.2 | – | 17.7 | 117.8 | 98.3 | 75.4 | 91.1 | 69.6 | 69.9 | 70 | 45.7 | 42.8 | 66.1 | 35.7 | 45.5 | 89.7 | – | – |
| COc1ccc(CCC2=NC(=S)N=N2)cc1 | Non-toxic | Non-toxic | 116.2 | 23.3 | 30.8 | 51.3 | 78.2 | 87.6 | 80.5 | 73.6 | 66.3 | 54 | 46.8 | 46.4 | 25.3 | 50 | 42.1 | 36.3 | 24.3 | 25.5 | inhibition in vivo at 200 mg/kg (Mus musculus [22]): 16.6%; inhibition in vivo at 200 mg/kg (Mus musculus [23]): 15% |
| COc1cc(CC2=NC(=S)N=N2)cc(OC)c1OC | Non-toxic | Non-toxic | 115.1 | 38.1 | 23.1 | 18.3 | 77.3 | 104.5 | 65 | 57.8 | 77 | 60 | 46 | 49.8 | 42.5 | 35.6 | 45.6 | 36.2 | – | 26.4 | inhibition in vivo at 50 mg/kg (Mus musculus [21]): 25.9% |
| CCOC(=O)Cc1csc2nc(-c3cc(Cl)cc(Cl)c3)nn12 | Non-toxic | Non-toxic | 200.1 | 42.8 | 16.7 | – | 96 | 83.1 | 60 | 78 | 61.3 | 65 | 49 | 43 | 66.2 | 70.4 | 41.6 | 40 | 35.9 | – | inhibition in vivo at 200 mg/kg (Mus musculus [22]): 20.8%; inhibition in vivo at 200 mg/kg (Mus musculus [23]): 21.4%; inhibition in vivo at 200 mg/kg (Mus musculus [24]): 17.3% |
| CCOC(=O)Cc1csc2nc(-c3ccc(OC)cc3)nn12 | Non-toxic | Non-toxic | 128.7 | – | – | 24.4 | 96.1 | 110.8 | 122.5 | 76.2 | 79 | 90 | 65.4 | 52.2 | 38.3 | 71.2 | 43.7 | 47.9 | 24.3 | – | – |
| Sc1n[nH]c(-c2ccccc2)n1 | Non-toxic | Non-toxic | 88.4 | – | – | 27.1 | 89.1 | 105.4 | 126 | 61.3 | 74.3 | 111 | 34.9 | 51.7 | 36.9 | 39.8 | 45.8 | 44.3 | 35.9 | 15.1 | inhibition in vivo at 50 mg/kg (Mus musculus [21]): 21.4% |
| CC(=O)Oc1ccccc1C(=O)O [ASPIRIN] | Non-toxic | Non-toxic | 121 | – | – | – | – | – | – | – | – | – | – | – | – | – | – | – | 50 | – | – |

Source: ChEMBL document CHEMBL3046590, “Design and synthesis of some thiazolotriazolyl esters as anti-inflammatory and analgesic agents” (Med Chem Res, 2012)
